Each structure is given as a SMILES string.

The target in this experiment is T1, IRAK4 (Homo sapiens, UniProt Q9NWZ3).
T1 sequence (Q9NWZ3 1-460): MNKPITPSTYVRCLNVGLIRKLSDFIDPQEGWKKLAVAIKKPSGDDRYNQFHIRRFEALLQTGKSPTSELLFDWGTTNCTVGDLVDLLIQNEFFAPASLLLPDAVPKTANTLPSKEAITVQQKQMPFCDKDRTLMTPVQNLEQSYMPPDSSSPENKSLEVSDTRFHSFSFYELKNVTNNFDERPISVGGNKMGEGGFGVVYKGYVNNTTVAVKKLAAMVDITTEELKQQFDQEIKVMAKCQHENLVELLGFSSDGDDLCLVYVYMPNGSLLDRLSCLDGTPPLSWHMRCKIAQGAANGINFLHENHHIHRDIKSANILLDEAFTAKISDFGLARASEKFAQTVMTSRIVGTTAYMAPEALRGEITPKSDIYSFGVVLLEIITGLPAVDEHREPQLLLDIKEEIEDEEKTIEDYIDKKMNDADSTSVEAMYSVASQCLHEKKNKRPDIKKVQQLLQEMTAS
The experiment in a line: 2-hour 10 μM ATP Biochemical Assay (MesoScale Detection format; IRAK4 phosphorylation of biotin labeled IRAK1 activation loop peptide). Particulars: IRAK4 MSD BIOCHEMICAL (10 μM ATP) IC50 (μM), 1 nM IRAK4, 2 hours. The protocol:
The 2-hour 10 μM ATP Biochemical Assay employs a MesoScale Detection (MSD) format.
The activity is quenched with 11 μl of 70 mM EDTA, pH 8.
To detect the phosphorylated biotinylated peptide substrate, 30 μl of the quenched reaction mixture is added to equivalent wells of a 384 well streptavidin coated MesoScale plate (Meso Scale Discovery #L21SA-1). After a 1 hour incubation of the plate for 1 hour at room temperature with gentle mixing, the plate wells are washed 3 times with 50 mM Tris, pH 7.5, 150 mM NaCl, 0.02% Tween-20.
A 25 μl volume of 1:500 anti-P-Threonine Rabbit polyclonal Antibody plus 1:500 Goat-anti-Rabbit Sulfo Tag Antibody (Meso Scale Discovery R32AB-1) in 50 mM Tris, pH 7.5, 150 mM NaCl, 0.02% Tween-20 plus 2% BSA is then added to each well. After a 1-hour incubation of the plate for 1 hour at room temperature with gentle mixing, the plate wells are washed, 3 times with 50 mM Tris, pH 7.5, 150 mM NaCl, 0.02% Tween-20. A 40 μl volume of 2×MSD Read Buffer (Meso Scale Discovery R92TC-1) is added to each well, and the plate is read immediately in an MSD Plate Reader (Meso Scale Discovery).
The IC50 is the concentration that gives 50% inhibition. A higher IC50 goes with weaker potency. `CCOc1cc2nc(C3CCN(C)C(=O)C3)cn2cc1NC(=O)c1cccc(C(F)F)n1` (racemic) [Example 75, 6-(difluoromethyl)-N-(7-ethoxy-2-(1-methyl-2-oxopiperidin-4-yl)imidazo[1,2-a]pyridin-6-yl)picolinamide] displayed a concentration for half-maximal inhibition (IC50) of 0.001 µM. In other words, the single-digit nanomolar range.
Take `C[C@H](COc1cc2nc(C3CC3)cn2cc1NC(=O)c1cccc(C(F)F)n1)n1ccccc1=O` (single isomer, unassigned) [Example 7]: it took 0.28 µM to reach half-maximal inhibition (IC50). This IC50 is about 280-fold higher than that of the molecule before.
The result for `C[C@@H](COc1cc2nc(C3CC3)cn2cc1NC(=O)c1cccc(C(F)F)n1)n1ccccc1=O` (single isomer, unassigned) [Example 8] reads 0.14 µM; that for `CCOc1cc2nc(CC3CCOC3)cn2cc1NC(=O)c1coc(-c2cnn(C)c2)n1` (single isomer, unassigned) [Example 251, N-(7-ethoxy-2-((tetrahydrofuran-3-yl)methyl)imidazo[1,2-a]pyridin-6-yl)-2-(1-methyl-1H-pyrazol-4-yl)oxazole-4-carboxamide], 0.002 µM; that for `CCOc1cc2nc(CC3CCOC3)cn2cc1NC(=O)c1coc(-c2cnn(C)c2)n1` (single isomer, unassigned) [Example 252, N-(7-ethoxy-2-((tetrahydrofuran-3-yl)methyl)imidazo[1,2-a]pyridin-6-yl)-2-(1-methyl-1H-pyrazol-4-yl)oxazole-4-carboxamide], 0.001 µM.
Molecule `COc1cc(NC(=O)c2cccc(C(F)F)n2)cn2cc(C3CC3(F)F)nc12` (single isomer, unassigned) [Example 513, N-(2-(2,2-difluorocyclopropyl)-8-methoxyimidazo[1,2-a]pyridin-6-yl)-6-(difluoromethyl)picolinamide] gave a concentration for half-maximal inhibition (IC50) of 0.015 µM. Against the preceding molecule, the IC50 is about 15-fold higher.
`COc1cc(NC(=O)c2cccc(C(F)F)n2)cn2cc(C3CC3(F)F)nc12` (single isomer, unassigned) [Example 514, N-(2-(2,2-difluorocyclopropyl)-8-methoxyimidazo[1,2-a]pyridin-6-yl)-6-(difluoromethyl)picolinamide] came in with a 50% inhibitory concentration (IC50) of 0.016 µM.
The result for `CC(COc1cc2nc(C3CC3)cn2cc1NC(=O)c1cccc(C(F)F)n1)n1ccccc1=O` (stereo not drawn) [Example 6, N-(2-cyclopropyl-7-(2-(2-oxopyridin-1(2H)-yl)propoxy)imidazo[1,2-a]pyridin-6-yl)-6-(difluoromethyl)picolinamide] reads 0.19 µM.
The result for `O=C(Nc1cn2cc(C3CC3)nc2cc1O)c1cccc(C(F)F)n1` [Example 10, N-(2-cyclopropyl-7-hydroxyimidazo[1,2-a]pyridin-6-yl)-6-(difluoromethyl)picolinamide] reads 0.059 µM; that for `CC[C@@H]1[C@H](F)C(=O)N[C@@H]1COc1cc2nc(C3CC3)cn2cc1NC(=O)c1cccc(C(F)F)n1` [Example 11, N-(2-cyclopropyl-7-(((2S,3S,4S)-3-ethyl-4-fluoro-5-oxopyrrolidin-2-yl)methoxy)imidazo[1,2-a]pyridin-6-yl)-6-(difluoromethyl)picolinamide], 0.079 µM.
The result for `CCOc1cc(NC(=O)c2cccc(C(F)F)n2)cn2cc(C3CC3)nc12` [Example 28, N-(2-cyclopropyl-8-ethoxyimidazo[1,2-a]pyridin-6-yl)-6-(difluoromethyl)picolinamide] reads 0.043 µM.
`CCOc1cc2nc(C3CC3)c(F)n2cc1NC(=O)c1cccc(C(F)F)n1` [Example 29, N-(2-cyclopropyl-7-ethoxy-3-fluoroimidazo[1,2-a]pyridin-6-yl)-6-(difluoromethyl)picolinamide] yielded an IC50 of 0.023 µM.
In turn, `O=C(Nc1ccc2nc(C3CC3)cn2c1)c1cccc(C(F)F)n1` [Example 30, N-(2-cyclopropylimidazo[1,2-a]pyridin-6-yl)-6-(difluoromethyl)picolinamide] gave an IC50 of 0.048 µM.
The result for `O=C(Nc1cn2cc(C3CC3)nc2cn1)c1cccc(C(F)F)n1` [Example 31, N-(2-cyclopropylimidazo[1,2-a]pyrazin-6-yl)-6-(difluoromethyl)picolinamide] reads 0.089 µM.
`CCOc1cc2nc(CC)cn2cc1NC(=O)c1cccc(NC(C)=O)n1` [Example 32, 6-acetamido-N-(7-ethoxy-2-ethylimidazo[1,2-a]pyridin-6-yl)picolinamide] yielded an IC50 of 0.064 µM.
The result for `CCOc1cc2nc(CC)cn2cc1NC(=O)c1ccc(C)c(C)n1` [Example 34, N-(7-ethoxy-2-ethylimidazo[1,2-a]pyridin-6-yl)-5,6-dimethylpicolinamide] reads 0.023 µM.
With `CCOc1cc2nc(CC)cn2cc1NC(=O)c1ccc(F)c(F)c1` [Example 35, N-(7-ethoxy-2-ethylimidazo[1,2-a]pyridin-6-yl)-3,4-difluorobenzamide], the concentration for half-maximal inhibition (IC50) was 2.5 µM.
The result for `CCOc1cc2nc(CC)cn2cc1NC(=O)c1nc(C(F)(F)F)ccc1F` [Example 36, N-(7-ethoxy-2-ethylimidazo[1,2-a]pyridin-6-yl)-3-fluoro-6-(trifluoromethyl)picolinamide] reads 0.26 µM; that for `CCOc1cc2nc(CC)cn2cc1NC(=O)c1ccc2c(c1)COC2` [Example 37, N-(7-ethoxy-2-ethylimidazo[1,2-a]pyridin-6-yl)-1,3-dihydroisobenzofuran-5-carboxamide], 1.7 µM.
Regarding `CCOc1cc2nc(CC)cn2cc1NC(=O)c1cc2n(n1)CCC2` [Example 38, N-(7-ethoxy-2-ethylimidazo[1,2-a]pyridin-6-yl)-5,6-dihydro-4H-pyrrolo[1,2-b]pyrazole-2-carboxamide], the 50% inhibitory concentration (IC50) is 2.6 µM. This IC50 lies about 1.5-fold higher than the previous one.
Regarding `CCOc1cc2nc(CC)cn2cc1NC(=O)c1cccc2c1OCCN2C` [Example 39, N-(7-ethoxy-2-ethylimidazo[1,2-a]pyridin-6-yl)-4-methyl-3,4-dihydro-2H-benzo[b][1,4]oxazine-8-carboxamide], it took 0.016 µM to reach half-maximal inhibition (IC50). Compared with the last molecule, the IC50 is about 160-fold lower.
The result for `CCOc1cc2nc(CC)cn2cc1NC(=O)c1ccc(F)cc1F` [Example 40, N-(7-ethoxy-2-ethylimidazo[1,2-a]pyridin-6-yl)-2,4-difluorobenzamide] reads 0.34 µM.
The result for `CCOc1cc2nc(CC)cn2cc1NC(=O)c1ccc2c(c1)NC(=O)C2` [Example 41, N-(7-ethoxy-2-ethylimidazo[1,2-a]pyridin-6-yl)-2-oxoindoline-6-carboxamide] reads 0.14 µM; that for `CCOc1cc2nc(CC)cn2cc1NC(=O)c1ccc2c(c1)OCC2` [Example 42, N-(7-ethoxy-2-ethylimidazo[1,2-a]pyridin-6-yl)-2,3-dihydrobenzofuran-6-carboxamide], 1.3 µM.
The molecule `CCOc1cc2nc(CC)cn2cc1NC(=O)c1ccc2c(c1)COCC2` [Example 43, N-(7-ethoxy-2-ethylimidazo[1,2-a]pyridin-6-yl)isochromane-7-carboxamide] registered an IC50 of 2.6 µM.
For the molecule `CCOc1cc2nc(CC)cn2cc1NC(=O)c1cc(C)c(C)cn1` [Example 45, N-(7-ethoxy-2-ethylimidazo[1,2-a]pyridin-6-yl)-4,5-dimethylpicolinamide], inhibition was half-maximal at 2.3 µM (IC50).
The result for `CCOc1cc2nc(CC)cn2cc1NC(=O)c1ccc(Cl)cn1` [Example 46, 5-chloro-N-(7-ethoxy-2-ethylimidazo[1,2-a]pyridin-6-yl)picolinamide] reads 0.083 µM; that for `CCOc1cc2nc(CC)cn2cc1NC(=O)c1ccc2c(c1)CCOC2` [Example 47, N-(7-ethoxy-2-ethylimidazo[1,2-a]pyridin-6-yl)isochromane-6-carboxamide], 1.1 µM.
As for `CCOc1cc2nc(CC)cn2cc1NC(=O)c1nc(C)c(C)s1` [Example 48, N-(7-ethoxy-2-ethylimidazo[1,2-a]pyridin-6-yl)-4,5-dimethylthiazole-2-carboxamide], the midpoint of inhibition, the IC50, lay at 2 µM.
`CCOc1cc2nc(CC)cn2cc1NC(=O)c1ccc(F)c(C(F)(F)F)n1` [Example 51, N-(7-ethoxy-2-ethylimidazo[1,2-a]pyridin-6-yl)-5-fluoro-6-(trifluoromethyl)picolinamide] registered a concentration for half-maximal inhibition (IC50) of 0.21 µM. Against the preceding molecule, the IC50 is about 9.5-fold lower.
The result for `COc1cc2nc(C3CC3)cn2cc1NC(=O)c1cccn(C)c1=O` [Example 52, N-(2-cyclopropyl-7-methoxyimidazo[1,2-a]pyridin-6-yl)-1-methyl-2-oxo-1,2-dihydropyridine-3-carboxamide] reads 0.033 µM; that for `CCOc1cc2nc(C3CC3)cn2cc1NC(=O)c1cc2ncccn2n1` [Example 53, N-(2-cyclopropyl-7-ethoxyimidazo[1,2-a]pyridin-6-yl)pyrazolo[1,5-a]pyrimidine-2-carboxamide], 0.11 µM; that for `CCOc1cc2nc(C3CC3)cn2cc1NC(=O)c1cccc(C(F)(F)F)c1` [Example 54, N-(2-cyclopropyl-7-ethoxyimidazo[1,2-a]pyridin-6-yl)-3-(trifluoromethyl)benzamide], 0.14 µM.

Source of the values: patent US20220089592A1, “IMIDAZO[1,2-A]PYRIDINYL DERIVATIVES AS IRAK4 INHIBITORS” (priority 2019, published 2022).
